The source of these data is US20250368640A1 (BIOFRONT LTD, priority 2022, published 2025).

The term IC50 denotes the concentration that inhibits the measured activity by half. By Dmax is commonly meant the largest share of the target that was removed.

Molecules are shown by their SMILES. Where two headings read alike, the source gives them in different places. Bounds are passed on as bounds.

In test [1] the target is T1, HPK1 (Homo sapiens (Human), UniProt Q92918). As to the kind of experiment: HPK1 degradation assay (western blot, human PBMC). Conditions: for Dmax: read-out: HPK1 Dmax. The format is cell-based. As to the method: Frozen human PBMC were purchased from Shanghai OribioTech and recovered with culture medium (RMPI1640) prior to use. The cells were then incubated with a variety of concentrations of compound. After incubation, the cells were collected and lysed. The protein concentration was determined by BCA protein assay kit from Thermo (23227). The HPK1 protein level was determined by western blots, using anti-human HPK1 polyclonal antibody from CST (4472S). Proteins were loaded into each well of the pre-casting gels and subjected to electrophoretic separation by SDS-PAGE. The protein resolved by SDS-PAGE were transferred to PVDF, blocked by 5% skim milk, and probed with anti-human HPK1 antibody or β-actin antibody from CST (3700S), using standard western blotting procedure.
For orientation: In western blotting, separated proteins are transferred to a membrane and probed.
Target sequence in this assay (Q92918 whole entry): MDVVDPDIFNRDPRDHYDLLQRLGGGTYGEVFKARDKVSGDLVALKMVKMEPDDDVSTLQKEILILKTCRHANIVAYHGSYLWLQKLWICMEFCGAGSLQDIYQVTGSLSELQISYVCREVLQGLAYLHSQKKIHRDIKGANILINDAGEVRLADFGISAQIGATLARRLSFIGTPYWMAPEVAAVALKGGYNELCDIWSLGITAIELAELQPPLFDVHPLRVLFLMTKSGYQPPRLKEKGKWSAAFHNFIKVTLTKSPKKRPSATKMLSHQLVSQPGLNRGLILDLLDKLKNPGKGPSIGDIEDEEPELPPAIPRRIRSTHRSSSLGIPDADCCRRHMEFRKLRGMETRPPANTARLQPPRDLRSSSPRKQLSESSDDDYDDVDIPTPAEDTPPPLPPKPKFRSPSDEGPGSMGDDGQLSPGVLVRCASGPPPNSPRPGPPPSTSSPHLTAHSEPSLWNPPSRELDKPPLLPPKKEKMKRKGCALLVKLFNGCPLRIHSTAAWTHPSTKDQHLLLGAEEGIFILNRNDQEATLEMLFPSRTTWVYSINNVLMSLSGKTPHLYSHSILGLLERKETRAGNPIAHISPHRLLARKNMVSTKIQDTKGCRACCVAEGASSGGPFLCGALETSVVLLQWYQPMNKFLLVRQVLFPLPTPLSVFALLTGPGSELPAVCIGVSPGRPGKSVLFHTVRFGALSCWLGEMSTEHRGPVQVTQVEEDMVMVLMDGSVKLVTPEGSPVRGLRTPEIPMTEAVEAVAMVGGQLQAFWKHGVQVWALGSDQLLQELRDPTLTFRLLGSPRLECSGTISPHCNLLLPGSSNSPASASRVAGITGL

For test [2], the system named is MEK 1/2. Kind of test: MEK 1/2 degradation assay (western blot). It is filed as cell-based, human. The protocol:
MEK 1/2 Degradation Assay
(§1) MV-411 cells were cultured with medium (IMDM) and IMR32 cells were cultured with medium (MEM) prior to use. Cells were then incubated with a variety of concentrations of compound. After incubation, the cells were collected and lysed. The protein concentration was determined by BCA protein assay kit from Thermo (23227). The […] protein level was determined by western blots, using anti-human MEK 1/2 polyclonal antibody from CST (9122S). Proteins were loaded into each well of the pre-casting gels and subjected to electrophoretic separation by SDS-PAGE. The protein resolved by SDS-PAGE were transferred to PVDF, blocked by 5% skim milk, and probed with anti-human MEK1/2 antibody or β-actin antibody from CST (3700S) and COX IV antibody from CST (4850S), using standard western blotting procedure.

The target of test [3] is T1, HPK1. As to the kind of experiment: HPK1 enzyme inhibition assay (ADP-Glo). It is filed as biochemical. As to the method:
HPK1 Enzyme Inhibition Assay
The compound was dissolved in 100% DMSO at the concentration of 10 mM. The HPK1 protein was purchased from Signal Chem (M23-11G-10). 2.5 μL per well of 2×HPK1 protein was added to assay plate containing the test compound, centrifuged at 1500 rpm for 1 minute, and then incubated at 25° C. for 60 minutes. MBP protein was purchased from Signal Chem (M42-51N) and ATP was purchased from Promega (V9102). The two were added 2.5 μL per well mixture of 2×MBP (0.2 ug/ul) and ATP (20 μM), centrifuged at 1500 rpm for 1 minute, then incubated at 25° C. for 60 minutes. Then added 5 μL of ADP-Glo from Promega (V9102) to the assay plate and depleted the unconsumed ATP for 60 minutes. Then centrifuged at 1500 rpm for 1 minute and incubated at 25° C. for 60 minutes. Finally, 10 μL of the kinase assay reagent from Promega (V9102) was added to the assay plate to convert ADP to ATP, centrifuged at 1500 rpm for 1 minute, incubate at 25° C. for 40 minutes. After 40 minutes incubation, the […] was determined. Based on the results, the IC50 value of the compound was calculated.
Target sequence in this assay (Q92918 1-346 limits assumed): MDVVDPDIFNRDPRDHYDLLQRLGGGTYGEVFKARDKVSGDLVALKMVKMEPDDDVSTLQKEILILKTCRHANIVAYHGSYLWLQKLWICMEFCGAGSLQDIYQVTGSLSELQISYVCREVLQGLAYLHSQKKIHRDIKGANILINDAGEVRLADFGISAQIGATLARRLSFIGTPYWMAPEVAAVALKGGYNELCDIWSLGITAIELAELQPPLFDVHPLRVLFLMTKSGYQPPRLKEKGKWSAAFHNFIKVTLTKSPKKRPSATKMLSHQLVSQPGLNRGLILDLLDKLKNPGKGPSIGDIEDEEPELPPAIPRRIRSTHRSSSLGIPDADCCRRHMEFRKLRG

The target in test [4] is T2, Aurora A (Homo sapiens (Human), UniProt O14965). As to the kind of experiment: Aurora A enzyme inhibition assay. It is filed as biochemical. As to the method:
Aurora A Enzyme Inhibition Assay
(§2) The compound was dissolved in 100% DMSO at the concentration of 10 mM. The Aurora A protein was purchased from Carna (05-101). 10 μL per well of 2.5×Aurora A protein was added to assay plate containing the test compound, centrifuged at 1000 rpm for 1 minute, and then incubated at 25° C. for 10 minutes. Peptide 21 was purchased from GL Biochem (116370) and ATP was purchased from Promega (V9102). The two were added 15 μL per well mixture of 1.67× peptide 21 (final conc. is 3 μM) and ATP (final conc. is 14.58 μM), centrifuged at 1000 rpm for 1 minute, then incubated at 25° C. for 40 minutes. Then added 30 μL of stop buffer (100 mM HEPES pH7.5, 0.015% Brij-35, 0.2% Coating Reagent 3, 50 mM EDTA) to the assay plate and centrifuged at 1000 rpm for 1 minute. the product was determined. Based on the results, the IC50 value of the compound was calculated.

Test [5] has as its target FLT3-ITD (Homo sapiens, UniProt P36888, ITD). As to the kind of experiment: FLT3-ITD enzyme inhibition assay. It is filed as biochemical. The protocol:
FLT3-ITD Enzyme Inhibition Assay
as §2, with “FLT3-ITD” for “Aurora A”, “Invitrogen (PV6191).” for “Carna (05-101).”, “2.5×FLT3-ITD” for “2.5×Aurora A”, “2” for “21”, “(112394)” for “(116370)”, “97.2” for “14.58”

Test [6] deals with T2, Aurora A. As to the kind of experiment: Aurora A degradation assay (western blot). The format is cell-based. Conditions: for Dmax: read-out: Aurora A Dmax. As to the method: Aurora A Degradation Assay
IMR32 cells were cultured with medium (MEM), Huh7 cells were cultured with medium (DMEM) and HL-60 cells were culture with medium (IMDM) prior to use. Cells were then incubated with a variety of concentrations of compound. After incubation, the cells were collected and lysed. The protein concentration was determined by BCA protein assay kit from Thermo (23227). The AURKA protein level was determined by western blots, using anti-human AURKA monoclonal antibody from CST (14475S). Proteins were loaded into each well of the pre-casting gels and subjected to electrophoretic separation by SDS-PAGE. The protein resolved by SDS-PAGE were transferred to PVDF, blocked by 5% skim milk, and probed with anti-human AURKA antibody or β-actin antibody from CST (3700S) or COX IV antibody from CST (4850S), using standard western blotting procedure.

Test [7] has as its system FLT3. Kind of test: FLT3 degradation assay (western blot, MV-411 cells). The format is cell-based, human. As to the method:
as §1, with “(IMDM)” for “(IMDM) and IMR32 cells were cultured with medium (MEM)”, “FLT3 monoclonal” for “MEK 1/2 polyclonal”, “(3462S).” for “(9122S).”, “FLT3” for “MEK1/2”, “-actin” for “β-actin”, “(3700S),” for “(3700S) and COX IV antibody from CST (4850S),”

Setting [8] is: protein degradation, human PBMC, class symbol, read-out: HPK1 DC50 (nM)/Dmax (%).
Where [9] appears, read: protein degradation, MV-411 or IMR32 cells.
Where [10] appears, read: protein degradation, MV-411 or IMR32 cells; read-out: MEK 1/2 DC50.
[11] abbreviates: enzyme inhibition, read-out: FLT3-ITD IC50.
The mark [12] stands for this setting: protein degradation, class symbol, read-out: FLT3 DC50 (nM)/Dmax (%).
Setting [13] is: protein degradation, human PBMC, read-out: HPK1 DC50.
Setting [14] is: read-out: MEK 1/2 DC50; protein degradation, MV-411 or IMR32 cells.
[15] abbreviates: protein degradation, IMR32, Huh7 or HL-60 cells, read-out: Aurora A DC50.
Where [16] appears, read: read-out: FLT3 DC50, protein degradation.
The mark [17] stands for this setting: protein degradation, IMR32, Huh7 or HL-60 cells.

Sequence of FLT3-ITD (P36888 whole entry, looked up, change not shown): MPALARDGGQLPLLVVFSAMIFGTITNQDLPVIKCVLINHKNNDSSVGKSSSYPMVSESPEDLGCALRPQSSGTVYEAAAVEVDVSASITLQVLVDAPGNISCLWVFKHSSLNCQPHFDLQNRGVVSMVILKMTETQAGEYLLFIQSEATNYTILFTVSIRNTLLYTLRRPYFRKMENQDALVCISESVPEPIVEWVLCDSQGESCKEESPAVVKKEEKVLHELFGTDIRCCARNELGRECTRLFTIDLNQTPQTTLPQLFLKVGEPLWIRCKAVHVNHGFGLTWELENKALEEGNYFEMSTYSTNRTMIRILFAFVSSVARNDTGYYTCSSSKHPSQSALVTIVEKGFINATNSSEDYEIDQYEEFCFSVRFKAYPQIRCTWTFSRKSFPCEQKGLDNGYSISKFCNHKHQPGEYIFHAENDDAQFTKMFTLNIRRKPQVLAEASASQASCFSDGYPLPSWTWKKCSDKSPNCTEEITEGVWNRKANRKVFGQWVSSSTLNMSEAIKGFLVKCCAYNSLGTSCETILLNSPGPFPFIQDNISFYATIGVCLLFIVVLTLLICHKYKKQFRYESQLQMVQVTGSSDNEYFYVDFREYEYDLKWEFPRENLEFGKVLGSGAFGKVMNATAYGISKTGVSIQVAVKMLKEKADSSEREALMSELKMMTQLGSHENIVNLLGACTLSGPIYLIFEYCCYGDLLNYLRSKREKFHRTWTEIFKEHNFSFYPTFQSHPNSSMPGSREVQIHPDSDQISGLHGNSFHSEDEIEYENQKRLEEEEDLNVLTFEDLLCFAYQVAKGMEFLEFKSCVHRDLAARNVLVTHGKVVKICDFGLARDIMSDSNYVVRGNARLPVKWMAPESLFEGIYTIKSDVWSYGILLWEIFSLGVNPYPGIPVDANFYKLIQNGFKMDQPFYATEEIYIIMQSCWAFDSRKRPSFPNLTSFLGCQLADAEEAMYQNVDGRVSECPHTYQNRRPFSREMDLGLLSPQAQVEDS
T2 sequence (O14965 whole entry): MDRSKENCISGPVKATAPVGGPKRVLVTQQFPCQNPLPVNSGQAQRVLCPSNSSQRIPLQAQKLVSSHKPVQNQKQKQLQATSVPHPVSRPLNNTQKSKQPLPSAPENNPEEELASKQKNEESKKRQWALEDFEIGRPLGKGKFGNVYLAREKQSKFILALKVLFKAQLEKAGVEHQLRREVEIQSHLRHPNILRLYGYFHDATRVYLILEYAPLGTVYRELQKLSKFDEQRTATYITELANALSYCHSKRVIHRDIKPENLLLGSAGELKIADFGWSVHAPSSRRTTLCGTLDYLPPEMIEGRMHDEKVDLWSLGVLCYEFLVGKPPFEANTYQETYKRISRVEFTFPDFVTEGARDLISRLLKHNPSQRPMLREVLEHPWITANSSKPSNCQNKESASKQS

In the case of `CCc1c[nH]c2ncc(-c3cccc(N4CCCN(CCN5CC(c6ccc7c(c6)C(=O)N(C6CCC(=O)NC6=O)C7=O)C5)C4=O)c3)c(Cl)c12` (centres unmarked) [Example 6, 5-(1-(2-(3-(3-(4-chloro-3-ethyl-1H-pyrrolo [2,3-b]pyridin-5-yl)phenyl)-2-oxotetra hydropyrimidin-1 (2H)-yl)ethyl)azetidin-3-yl)-2-(2,6-dioxopiperidin-3-yl) isoindo line-1,3-dione], the DC50 is more than 10000 nM in test [1] (setting [8]); less than 1 nM in test [2] (setting [10]); more than 10000 nM in test [6] (protein degradation, IMR32, Huh7 or HL-60 cells, class symbol, read-out: Aurora A DC50 (nM)/Dmax (%)); more than 10000 nM in test [7] (setting [12]). Besides, the “MEK 1/2 Dmax” value in test [2] (setting [9]) is reported as 32%. The IC50 in test [3] amounted to 3.1 nM; in test [4], 9.9 nM; in test [5] (setting [11]), 18.4 nM.
As for `CCc1c[nH]c2ncc(-c3cccc(N4CCCN(CC5CCN(c6ccc7c(c6)C(=O)N(C6CCC(=O)NC6=O)C7=O)CC5)C4=O)c3)c(Cl)c12` (centres unmarked) [Example 8, 5-(4-((3-(3-(4-chloro-3-ethyl-1H-pyrrolo [2,3-b]pyridin-5-yl)phenyl)-2-oxotetrahydropyrimidin-1 (2H)-yl)methyl)piperidin-1-yl)-2-(2,6-dioxopiperidin-3-yl) isoindoline-1,3-dione], the DC50 in test [1] (setting [13]) was 85 nM; in test [2] (setting [14]), 82 nM; in test [6] (setting [15]), less than 20 nM; in test [7] (setting [16]), 8 nM. In addition, the Dmax in test [1] and in test [6] was 95% in each case. Besides, the “MEK 1/2 Dmax” value in test [2] (setting [9]) was determined as 91%. Also, the IC50 in test [3] was 15.7 nM; in test [4] it was 110 nM; in test [5] it was 5.7 nM. Besides, the “FLT3 Dmax” value in test [7] (protein degradation) was determined as 95%.
In the case of `O=C1CCC(N2C(=O)c3cc(F)c(N4CCC(CCN5CCCN(c6cccc(-c7cnc8[nH]cc(C9CC9)c8c7Cl)c6)C5=O)CC4)cc3C2=O)C(=O)N1` (centres unmarked) [Example 9, 5-(4-(2-(3-(3-(4-chloro-3-cyclopropyl-1H-pyrrolo [2,3-b]pyridin-5-yl)phenyl)-2-oxotetrahydropyrimidin-1 (2H)-yl)ethyl)piperidin-1-yl)-2-(2,6-dioxopiperidin-3-yl)-6-fluoroisoindoline-1,3-dione], the DC50 was 294 nM in test [1] (setting [13]); more than 10000 nM in test [2] (read-out: MEK 1/2 DC50 (nM)/Dmax (%); protein degradation, MV-411 or IMR32 cells; class symbol); more than 1000 nM in test [6] (setting [15]); 100 nM in test [7] (setting [16]). The Dmax in test [1] and in test [6] was 50% in each case. Moreover, the IC50 in test [3] came out at 62.9 nM; in test [4], 131 nM; in test [5] (setting [11]) it was 36.5 nM. For the same compound, in test [7] (protein degradation), the “FLT3 Dmax” value was determined as 60%.
Regarding `O=C1CCC(N2Cc3ccc(N4CCC(CN5CCCN(c6cccc(-c7cnc8[nH]cc(C9CC9)c8c7Cl)c6)C5=O)CC4)cc3C2=O)C(=O)N1` (centres unmarked) [Example 11], the DC50 in test [1] (setting [8]) was more than 10000 nM; in test [2] (setting [10]), 49 nM; in test [6] (setting [15]), 9 nM; in test [7] (setting [12]), more than 10000 nM. Besides, the “MEK 1/2 Dmax” value in test [2] (setting [9]) was determined as 30%. For the same compound, the IC50 in test [3] is 13.6 nM; in test [4], 21.2 nM; in test [5] (setting [11]) it was 20.8 nM. In test [6] (setting [17]), the Dmax is 50%.
As for `O=C1CCC(N2Cc3ccc(N4CCC(CN5CCCN(c6cccc(-c7cnc8[nH]cc(CC(F)F)c8c7Cl)c6)C5=O)CC4)cc3C2=O)C(=O)N1` (centres unmarked) [Example 13], the DC50 is 11 nM in test [1] (setting [13]), less than 1 nM in test [2] (setting [10]), 3 nM in test [6] (setting [15]) and more than 10000 nM in test [7] (setting [12]). Also, the Dmax in test [1] (protein degradation, human PBMC) came to 50%; in test [6] (setting [17]) it was 70%. Also, in test [2] (setting [9]), the “MEK 1/2 Dmax” value is reported as 30%. In addition, the IC50 in test [3] was found to be 12.5 nM; in test [4], 14.3 nM; in test [5] (setting [11]), 23.8 nM.
Regarding `CCc1c[nH]c2ncc(-c3cccc(N4CCCN(CC5CCN(c6ccc(NC7CCC(=O)NC7=O)cc6F)CC5)C4=O)c3)c(Cl)c12` (centres unmarked) [Example 15, 3-((4-(4-((3-(3-(4-chloro-3-ethyl-1H-pyrrolo [2,3-b]pyridin-5-yl)phenyl)-2-oxotetrahydropyrimidin-1 (2H)-yl)methyl)piperidin-1-yl)-3-fluorophenyl)amino) piperidine-2,6-dione], the DC50 in test [1] (setting [13]) turned out to be 6 nM; in test [2] (setting [14]) it was 1 nM; in test [6] (setting [15]) it was 9.6 nM; in test [7] (setting [16]), 0.02 nM. In addition, the Dmax in test [1] stood at 80%; in test [6], 82%. The “MEK 1/2 Dmax” value in test [2] (setting [9]) was 38%. Further, the IC50 in test [3] was determined as 4.6 nM; in test [4] it was 19.9 nM; in test [5] it was 8.8 nM. The “FLT3 Dmax” value in test [7] (protein degradation) amounted to 34%.
